The record followed here is patent US20260022142A1, “MACROCYCLIC IMMUNOMODULATORS” (Bristol-Myers Squibb Company, priority 2022, published 2026).

Numbered stars: 1 amine (or outer) side, 2 acyl side, 3 side chain; on linkers, the order of the positions; unused ones are H or OH. Bridge positions count the residues as written; N and C are the ends. Square brackets hold non-standard residues; d marks the D form. Peptide text beside a SMILES is read from it. * marks the point of attachment. ξ: configuration not given here. Phe(3-CF3) = N[C@@H](Cc1cccc(C(F)(F)F)c1)C(=O)O; Phe(4-COOH) = N[C@@H](Cc1ccc(C(=O)O)cc1)C(=O)O; d(γGlu) = O=C(O)[C@@H](CCC(=O)[*:2])N[*:1]; Bip = N[C@@H](Cc1ccc(-c2ccccc2)cc1)C(=O)O; NH(CH2)14COOH = O=C(O)CCCCCCCCCCCCCCN*; Phe(3-Me) = Cc1cccc(C[C@H](N)C(=O)O)c1; γGlu = O=C(O)[C@H](CCC(=O)[*:2])N[*:1]; NH(CH2)12COOH = O=C(O)CCCCCCCCCCCCN*; PEG6 = NCCOCCOCCOCCOCCOCCOCCC(=O)O; Val(3-OH) = CC(C)(O)[C@H](N)C(=O)O; Cha = N[C@@H](CC1CCCCC1)C(=O)O; aThr = C[C@H](O)[C@H](N)C(=O)O; Thr(3ξ) = CC(O)[C@H](N)C(=O)O; PEG4 = NCCOCCOCCOCCOCCC(=O)O; Dap(Me) = CNC[C@H](N)C(=O)O; Carboxymethyl = O=C(O)C*; Orn = NCCC[C@H](N)C(=O)O; Dab = NCC[C@H](N)C(=O)O; AEEA = NCCOCCOCC(=O)O

What is called IC50 is the concentration that gives 50% inhibition.

In this assay the target is T1, PD-1/PD-L1 interaction (PE-labeled human PD-L1-Ig binding to Jurkat cell line over-expressing human PD-1) (Homo sapiens, UniProt Q15116).
T1 construct: expressed in transfected cells; host or cells: Jurkat
T1 sequence (Q15116 25-288): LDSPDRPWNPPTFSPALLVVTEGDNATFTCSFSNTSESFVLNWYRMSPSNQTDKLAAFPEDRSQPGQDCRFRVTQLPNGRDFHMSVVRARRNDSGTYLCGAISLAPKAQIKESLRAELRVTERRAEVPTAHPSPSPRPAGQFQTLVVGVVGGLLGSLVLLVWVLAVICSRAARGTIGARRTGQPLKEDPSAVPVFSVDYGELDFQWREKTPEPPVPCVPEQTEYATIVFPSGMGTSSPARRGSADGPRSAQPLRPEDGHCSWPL
In words: Jurkat-PD-1 Cell Binding High-Content Screening Assay (CBA). The conditions noted are these: Jurkat cell line over-expressing human PD-1; PE-labeled PD-L1-Ig 20 nM final; read-out: Jurkat hPD1-PDL1 IC50. It counts as cell-based. The procedure, abridged:
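Binding of fluorescent PD-L1-Ig (20 nM final) to Jurkat-PD-1 cells was measured by automated imaging after 1 h, following a 2 h compound pre-treatment at 37° C.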
Consider `CC(C)C[C@H]1NC(=O)[C@H](CCCN)NC(=O)[C@H](Cc2ccc(OCC(=O)O)cc2)NC(=O)[C@H](Cc2ccc(-c3ccccc3)cc2)NC(=O)[C@H](Cc2ccc(C(=O)O)cc2)NC(=O)[C@H](Cc2cccc(C(F)(F)F)c2)NC(=O)[C@H](CC(=O)O)NC(=O)[C@H](Cc2ccc(OCC(=O)O)cc2)NC(=O)[C@H](Cc2ccc(OCC(=O)O)cc2)NC(=O)CSC[C@@H](C(=O)N[C@@H](CCN)C(=O)NCCOCCOCC(=O)N[C@H](CCC(=O)NCCOCCOCC(=O)NCCCCCCCCCCCCC(=O)O)C(=O)O)NC(=O)[C@H](CO)NC(=O)[C@H](C(C)(C)O)NC(=O)[C@H](CC2CCCCC2)NC(=O)[C@H](CCN)NC1=O` [Compound 3904] ({CH2CO}-Y(Carboxymethyl)Y(Carboxymethyl)D[Phe(3-CF3)][Phe(4-COOH)][Bip]Y(Carboxymethyl)[Orn][dL][Dab][Cha][Val(3-OH)]SC[Dab][AEEA][d(γGlu)][AEEA]-{NH(CH2)12COOH}; thioether N-14), for which the IC50 was found to be 38.1 nM. The same measure for `CNC[C@@H]1NC(=O)CSC[C@@H](C(=O)N[C@@H](CCN)C(=O)NCCOCCOCC(=O)N[C@@H](CCC(=O)NCCOCCOCC(=O)NCCCCCCCCCCCCC(=O)O)C(=O)O)NC(=O)[C@H](CO)NC(=O)[C@H](C(C)(C)O)NC(=O)[C@H](CC2CCCCC2)NC(=O)[C@H](CCN)NC(=O)[C@@H](CC(C)C)NC(=O)[C@H](CCCN)NC(=O)[C@H](Cc2ccc(OCC(=O)O)cc2)NC(=O)[C@H](Cc2ccc(-c3ccccc3)cc2)NC(=O)[C@H](Cc2ccc(OCC(=O)O)cc2)NC(=O)[C@H](Cc2cccc(C(F)(F)F)c2)NC(=O)[C@H](CC(=O)O)NC(=O)[C@H](Cc2ccc(OCC(=O)O)cc2)NC1=O` [Compound 3905] ({CH2CO}-[Dap(Me)]Y(Carboxymethyl)D[Phe(3-CF3)]Y(Carboxymethyl)[Bip]Y(Carboxymethyl)[Orn][dL][Dab][Cha][Val(3-OH)]SC[Dab][AEEA][γGlu][AEEA]-{NH(CH2)12COOH}; thioether N-14): 38.4 nM; for `Cc1cccc(C[C@@H]2NC(=O)[C@H](CC(=O)O)NC(=O)[C@H](Cc3ccc(OCC(=O)O)cc3)NC(=O)[C@H](C(C)O)NC(=O)CSC[C@@H](C(=O)N[C@@H](CCN)C(=O)NCCOCCOCC(=O)N[C@@H](CCC(=O)NCCOCCOCC(=O)NCCCCCCCCCCCCC(=O)O)C(=O)O)NC(=O)[C@H](CO)NC(=O)[C@H](C(C)(C)O)NC(=O)[C@H](CC3CCCCC3)NC(=O)[C@H](CCN)NC(=O)[C@@H](CC(C)C)NC(=O)[C@H](CCCN)NC(=O)[C@H](Cc3ccc(OCC(=O)O)cc3)NC(=O)[C@H](Cc3ccc(-c4ccccc4)cc3)NC(=O)[C@H](Cc3ccc(OCC(=O)O)cc3)NC2=O)c1` (stereo partly drawn) [Compound 3906] ({CH2CO}-[Thr(3ξ)]Y(Carboxymethyl)D[Phe(3-Me)]Y(Carboxymethyl)[Bip]Y(Carboxymethyl)[Orn][dL][Dab][Cha][Val(3-OH)]SC[Dab][AEEA][γGlu][AEEA]-{NH(CH2)12COOH}; thioether N-14): 17.7 nM; for `Cc1cccc(C[C@@H]2NC(=O)[C@H](CC(=O)O)NC(=O)[C@H](Cc3ccc(OCC(=O)O)cc3)NC(=O)[C@H](C(C)O)NC(=O)CSC[C@@H](C(=O)N[C@@H](CCN)C(=O)NCCOCCOCC(=O)N[C@@H](CCC(=O)NCCOCCOCC(=O)NCCCCCCCCCCCCC(=O)O)C(=O)O)NC(=O)[C@H](CO)NC(=O)[C@H](C(C)(C)O)NC(=O)[C@H](CC3CCCCC3)NC(=O)[C@H](CCN)NC(=O)[C@@H](CC(C)C)NC(=O)[C@H](CCCN)NC(=O)[C@H](Cc3ccc(C(=O)O)cc3)NC(=O)[C@H](Cc3ccc(-c4ccccc4)cc3)NC(=O)[C@H](Cc3ccc(C(=O)O)cc3)NC2=O)c1` (stereo partly drawn) [Compound 3907] ({CH2CO}-[Thr(3ξ)]Y(Carboxymethyl)D[Phe(3-Me)][Phe(4-COOH)][Bip][Phe(4-COOH)][Orn][dL][Dab][Cha][Val(3-OH)]SC[Dab][AEEA][γGlu][AEEA]-{NH(CH2)12COOH}; thioether N-14): 16.6 nM.

In the case of `COC[C@@H]1NC(=O)CSC[C@@H](C(=O)N[C@@H](CCN)C(=O)NCCOCCOCCOCCOCCC(=O)N[C@@H](CCC(=O)N[C@@H](CO)C(=O)NCCCCCCCCCCCCCCC(=O)O)C(=O)O)NC(=O)[C@H](CO)NC(=O)[C@H](C(C)(C)O)NC(=O)[C@H](CC2CCCCC2)NC(=O)[C@H](CCN)NC(=O)[C@@H](CC(C)C)NC(=O)[C@H](CCCN)NC(=O)[C@H](Cc2ccc(C(=O)O)cc2)NC(=O)[C@H](Cc2ccc(-c3ccccc3)cc2)NC(=O)[C@H](Cc2ccc(C(=O)O)cc2)NC(=O)[C@H](Cc2cccc(C(F)(F)F)c2)NC(=O)[C@H](CC(=O)O)NC(=O)[C@H](Cc2ccc(C(=O)O)cc2)NC1=O` [Compound 3908] ({CH2CO}-S(Me)[Phe(4-COOH)]D[Phe(3-CF3)][Phe(4-COOH)][Bip][Phe(4-COOH)][Orn][dL][Dab][Cha][Val(3-OH)]SC[Dab][PEG4][γGlu]S-{NH(CH2)14COOH}; thioether N-14), the IC50 came to 125 nM. The value for `Cc1cccc(C[C@@H]2NC(=O)[C@H](CC(=O)O)NC(=O)[C@H](Cc3ccc(C(=O)O)cc3)NC(=O)[C@H](CC(C)C)NC(=O)CSC[C@@H](C(=O)N[C@@H](CCN)C(=O)NCCOCCOCCOCCOCCC(=O)NCCCCCCCCCCCCCCC(=O)O)NC(=O)[C@H](CCC(=O)O)NC(=O)[C@H](C(C)C)NC(=O)[C@H](CC3CCCCC3)NC(=O)[C@H](CCN)NC(=O)[C@@H](CC(C)C)NC(=O)[C@H](CCCN)NC(=O)[C@H](Cc3ccc(C(=O)O)cc3)NC(=O)[C@H](Cc3ccc(-c4ccccc4)cc3)NC(=O)[C@H](Cc3ccc(C(=O)O)cc3)NC2=O)c1` [Compound 3909] ({CH2CO}-L[Phe(4-COOH)]D[Phe(3-Me)][Phe(4-COOH)][Bip][Phe(4-COOH)][Orn][dL][Dab][Cha]VEC[Dab][PEG4]-{NH(CH2)14COOH}; thioether N-14) was 15.7 nM; that for `CC(C)C[C@@H]1NC(=O)CSC[C@@H](C(=O)N[C@@H](CCN)C(=O)NCCOCCOCCOCCOCCC(=O)NCCCCCCCCCCCCCCC(=O)O)NC(=O)[C@H](CCC(=O)O)NC(=O)[C@H](C(C)C)NC(=O)[C@H](CC2CCCCC2)NC(=O)[C@H](CCN)NC(=O)[C@@H](CC(C)C)NC(=O)[C@H](CCCN)NC(=O)[C@H](Cc2ccc(C(=O)O)cc2)NC(=O)[C@H](Cc2ccc(-c3ccccc3)cc2)NC(=O)[C@H](Cc2ccc(C(=O)O)cc2)NC(=O)[C@H](Cc2cccc(C(F)(F)F)c2)NC(=O)[C@H](CC(=O)O)NC(=O)[C@H](Cc2ccc(C(=O)O)cc2)NC1=O` [Compound 3910] ({CH2CO}-L[Phe(4-COOH)]D[Phe(3-CF3)][Phe(4-COOH)][Bip][Phe(4-COOH)][Orn][dL][Dab][Cha]VEC[Dab][PEG4]-{NH(CH2)14COOH}; thioether N-14) was 597 nM. The value for `Cc1cccc(C[C@@H]2NC(=O)[C@H](CC(=O)O)NC(=O)[C@H](Cc3ccc(OCC(=O)O)cc3)NC(=O)[C@H]([C@H](C)O)NC(=O)CSC[C@@H](C(=O)N[C@@H](CCN)C(=O)NCCOCCOCCOCCOCCOCCOCCC(=O)NCCCCCCCCCCCCCCC(=O)O)NC(=O)[C@H](CCC(=O)O)NC(=O)[C@H](C(C)C)NC(=O)[C@H](CC3CCCCC3)NC(=O)[C@H](CCN)NC(=O)[C@@H](CC(C)C)NC(=O)[C@H](CCCN)NC(=O)[C@H](Cc3ccc(OCC(=O)O)cc3)NC(=O)[C@H](Cc3ccc(-c4ccccc4)cc3)NC(=O)[C@H](Cc3ccc(C(=O)O)cc3)NC2=O)c1` [Compound 3911] ({CH2CO}-[aThr]Y(Carboxymethyl)D[Phe(3-Me)][Phe(4-COOH)][Bip]Y(Carboxymethyl)[Orn][dL][Dab][Cha]VEC[Dab][PEG6]-{NH(CH2)14COOH}; thioether N-14) was 90.5 nM.

`CC(C)C[C@H]1NC(=O)[C@H](CCCN)NC(=O)[C@H](Cc2ccc(OCC(=O)O)cc2)NC(=O)[C@H](Cc2ccc(-c3ccccc3)cc2)NC(=O)[C@H](Cc2ccc(C(=O)O)cc2)NC(=O)[C@H](Cc2cccc(C(F)(F)F)c2)NC(=O)[C@H](CC(=O)O)NC(=O)[C@H](Cc2ccc(OCC(=O)O)cc2)NC(=O)[C@H]([C@H](C)O)NC(=O)CSC[C@@H](C(=O)N[C@@H](CCN)C(=O)NCCOCCOCCOCCOCCOCCOCCC(=O)NCCCCCCCCCCCCCCC(=O)O)NC(=O)[C@H](CCC(=O)O)NC(=O)[C@H](C(C)C)NC(=O)[C@H](CC2CCCCC2)NC(=O)[C@H](CCN)NC1=O` [Compound 3912] ({CH2CO}-[aThr]Y(Carboxymethyl)D[Phe(3-CF3)][Phe(4-COOH)][Bip]Y(Carboxymethyl)[Orn][dL][Dab][Cha]VEC[Dab][PEG6]-{NH(CH2)14COOH}; thioether N-14): the IC50 was determined as 252 nM.
